The results in this text go back to patent US12162861B2, “Dopamine D3 receptor selective antagonists/partial agonists; method of making; and use thereof” (THE UNITED STATES OF AMERICA, AS REPRESENTED BY THE …, priority 2016, dated 2024).

Entries after “also recorded” stand apart in the source; their conditions may differ.

Assay [1] concerns squirrel monkeys. In words: THC self-administration in squirrel monkeys (FR10). The assay is classed as in vivo, squirrel monkey (Saimiri sciureus). Particulars: FR10, 1, 3, and 10 mg/kg i.m. From the text: Subjects: Seven adult male squirrel monkeys (Saimiri sciureus) weighing 0.8 to 1.1 kg were housed in individual cages in a temperature- and humidity-controlled room with unrestricted access to water. […] The monkeys were trained to self-administer either THC or food pellets prior to the study. Monkeys were fed (approximately two hours after the session) a daily food ration consisting of biscuits of high protein monkey diet (Lab Diet 5045, PMI Nutrition International, Richmond, Indiana). The number of biscuits (8-14) was determined for each monkey individually to maintain their body weights at a constant level throughout the study. […]
Apparatus: Experimental chambers and other apparatus used in this study were the same as previously described (Justinova et al. 2003). […] The chair contained one response lever (Med Associates., USA) mounted on a transparent front wall; each press on the lever with a force greater than 0.2 N produced an audible click and was recorded as a response. […]
Self-administration procedure: Daily one-hour experimental sessions were typically conducted from Monday through Friday with each monkey. […] Before the start of the session, catheters were flushed with 1 ml of saline and one injection was delivered (calculated to fill the dead space of the catheter which was about 0.2 ml). […]

Assay [2] deals with squirrel monkeys. Nature of the assay: THC priming-induced reinstatement of drug seeking in squirrel monkeys. Particulars: squirrel monkeys, 1, 3, and 10 mg/kg i.m., FIG. 9. The assay is classed as in vivo, squirrel monkey (Saimiri sciureus). From the text: Reinstatement studies: In order to separately determine the reinstatement effects of a priming injection and drug-associated cues, we use two different extinction protocols (described below) that allow us to isolate the effects of these independent variables.
Priming-induced reinstatement: Before priming-induced reinstatement testing began, monkeys were allowed to self-administer the training dose of THC until they reached a stable baseline (5-10 sessions). In subsequent extinction sessions, lever presses led to i.v. saline infusions plus the visual cues that had been associated previously with THC. After at least two sessions of extinction, when responding had reached a low, stable level, a priming injection of THC (0.04 mg/kg i.v.) was given immediately before the next session, during which responding (FR10) continued to produce only i.v. saline injections and the discrete visual cues. […] A non-contingent i.v. injection of vehicle was also given before each extinction session as a control for the drug priming treatment.
Δ^9-tetrahydrocannabinol (THC, NIDA Drug Supply Program, Bethesda, MD, USA) was dissolved in a vehicle containing 1% Tween 80, 1% ethanol, and saline to obtain stock solution (0.4 mg/ml) and further diluted with saline. In the reinstatement tests, THC was injected i.v. (1 ml/kg) immediately before the session.

Consider `CCc1cc(Cl)c(OC)c(N2CCN(CC(O)CCNC(=O)c3cc4ccccc4[nH]3)CC2)c1` (racemic) [Compound 29, N-(4-(4-(3-chloro-5-ethyl-2-methoxyphenyl)piperazin-1-yl)-3-hydroxybutyl)-1H-indole-2-carboxamide], for which the THC self-administration result is “attenuates THC self-administration; also recorded: dose-dependently blocked THC self-administration” in assay [1] (FIG. 7) and “attenuation of THC self-administration” in assay [1] (FIG. 7, listed as (±)-29). For the same molecule, the “THC-induced reinstatement to drug seeking” value in assay [2] is reported as “attenuates THC-induced reinstatement to drug seeking; also recorded: blocked THC-induced reinstatement of drug seeking”; in assay [2] (listed as (±)-29) it was “attenuation of THC-induced reinstatement to drug seeking”.
